From patent US5972883A, “Method for the treatment of neurodegenerative diseases by administering VIP, an analogue, fragment or a conjugate thereof” (Yeda Research and Development Co. Ltd., priority 1993, dated 1999)
Several values for one entry are separate records, joined by “and”; a condition that tells them apart may be missing. Equal entries are not always repeated. Entries after “also recorded” stand apart in the source; their conditions may differ.

What was measured:
[1] = tested on: learning and memory in AF64A-injected rats; test: Morris water maze, AF64A animal model of Alzheimer, I.C.V. drug administration; type: in vivo, rat; settings: 100 ng I.C.V. daily
Description: 13 Male rats were injected intracerebroventricularly (I.C.V.) at a rate of 0.21 μl/min, using plastic tubing (PE-20) attached to 25G needle. 5 rats serving as control received an injection of saline (2 μl/side), 8 other animals received injections of ethylcholine aziridium (AF64A) (3 nmol/2 μl/side). AF64A is an inducer of cholinergic hypofunctions which mimics some of the cholinergic hypofunction reported in Alzheimer's disease and is used for preparing animal models of Alzheimer^(22).
Animals were cannulated following injection to allow I.C.V. drug application and left to recover for a week. Learning and memory tests were conducted using the swim maze test. The 8 animals injected with AF64A were divided into two equal groups and were thereafter injected daily with either saline or 100 ng I.C.V. of St-Nle^17 -VIP. The five control rats (see above) were injected with saline. Following seven injection days, behavioral assays were conducted for an additional 14 days on both control and test animals. […]
(§1) Rats were placed in a circular pool, 1.26 m in diameter, 0.2 m deep, equipped with a clear plexiglas column, with a 13.3 cm platform reaching just below the surface of the water (22-24° C.). […] The latency of reaching the platform was recorded for each rat (in seconds) and the changes over days of training were graphed, which reflect learning and memory.

[2] = tested on: electrically blocked neurons (mouse spinal cord neurons); type: cell-based
[3] = Pharmacological experimentation: biologically active dose; type: in vivo; settings: rat
Description: The logic of the dose design was as follows: pharmacological experimentation has shown that the biologically active dose is 7 μg per rat. The dose of 1000× the biologically active dose was chosen for this experiment.

VIP receptor = test: Affinity studies: displacement of radiolabeled VIP on cerebral cortical astrocytes; type: binding
Description: (a) Cerebral cortical astrocytes were obtained and cultured as described before^16,17). Binding studies were performed on intact cells, 5-7 days after replating at 4° C. in phosphate buffered saline containing 0.1% bovine serum albumin. Cells were divided into two groups. Group 1 was incubated with varying concentrations of St-VIP and Group 2 was incubated with varying concentrations of St-Nle^17 -VIP. After 30 min. incubation with the VIP analogue, 50 pM of ^125 -VIP^(14) was added and incubated for an hour. The media was then removed and cells were washed three times by rapid addition and removal of 1 ml phosphate buffered saline at 4° C. The labeled cells were then dissolved in 0.2 N NaOH and transferred for radioactivity counting by an automatic gamma counter (Wallac 1470 Wizard).

Sprague Dawley rats [4] = test: Single dose toxicity, orally administered; type: in vivo, rat
From the text: The single dose toxicity of St-Nle^17 -VIP administered orally was investigated in 4 groups of six male and six female rats (Sprague Dawley (S.D.) strain, purchased from Levinstein, Yokneam, Israel.)

[5] = tested on: learning and memory in AF64A-treated rats; test: Morris water maze, AF64A animal model of Alzheimer, nasal drug administration; type: in vivo, rat; settings: daily nasal administration (St-Nle17-VIP 70 μg/40 μl; peptide 6 50 μg/40 μl)
Description: 8 Male rats were all treated with AF64A as described above. 10 days after AF64A administration 5 animals received daily nasal administration of St-Nle^17 -VIP dissolved in 10% sefsol and 40% isopropanol at a concentration of 70 μg/40 μl (20 μl administered through each nostril). 3 Animals received daily nasal administration of 50 μg/40 μI of peptide 6, (20 μl/nostril) dissolved in 10% sefsol and 40% isopropanol. 6 Control animals received daily nasal administration of 10% sefsol and 40% isopropanol at an amount of 40 μl/day (20 μl nostril). The animals were partially anesthetized by diethylether prior to nasal administration. Both control and test animals were daily treated with 50,000 units of durabiotic antibiotics to avoid infection. Following 7 days of nasal administration behavioral tests were conducted on both control and test animals for an additional 8 days. […]
as §1

[6] = Biodistribution following intranasal administration of radioiodinated peptide; type: in vivo, rat; settings: rats
Description: St-Nle^17 -VIP was labeled with radioactive iodine and 3×10^6cpn/2 μl/rat of the labeled substance were applied intranasally to 250-300 g rats. Animals were sacrificed 15 mins. following drug administration.
Radioactive tissue samples were then homogenized and subjected to centrifugation (5,400×g for 25 mins.). Supernatants were then subjected to HPLC analysis against St-Nle^17 -VIP as a marker. Elution was carried out using acetonitrile gradient at fraction 30. Samples were then weighed and monitored for radioactivity in a gamma counter. To assess for the integrity of the incorporated St-Nle^17 -VIP radioactive tissue, supernatants were subjected to HPLC analysis. Radioactive tissue samples were hornogenized, subjected to centrifugation and supernatnants analyzed by HPLC fractionation against St-Nle-VIP as a marker (eluting using an acetonitrile gradient at fraction 30).

[7] = tested on: Neurons from rat cerebral cortex treated with β-amyloid peptide fragment 25-35; test: Survival of neurons treated with fragment 25-35 of β-amyloid peptide
[8] = tested on: learning and memory in old rats; test: Learning and memory in old animals (water pool), nasal administration; type: in vivo, rat; settings: rats aged 18-20 months, nasal 100 μg/40 μl/day
Description: 6 Male rats aged 18-20 months were divided into hvo groups. Group 1 received daily nasal administrations of St-Nle^17 -VIP dissolved in 10% sefsol at 40% isopropanol at a dose of 100 μg/40 μl/day (20 μl/nostril). Control animals were treated with daily nasal administration of 40 μl/day of 10% sefsol and 40% isopropanol (20 μl/nostril). The administration was carried out after partial anesthetization by diethylether. Animals were thus treated for 7-19 days and then were tested by placing them in a water pool as described above.

[9] = Stability of test material; type: physicochemical
Sprague Dawley rats [10] = test: Single dose toxicity, intravenously injected (tail vein); type: in vivo, rat
From the text: The single dose toxicity of St-Nle^17 -VIP injected intravenously, in to the tail vein, was investigated in 4 groups of six male and six female rats (Sprague Dawley (S.D.) strain, purchased from Levinstein, Yokneam, Israel).

Sprague Dawley rats [11] = test: Repeated dose toxicity, topically applied, 13 weeks
[12] = tested on: untreated neurons (cerebral cortical cultures); test: Survival of untreated neurons (naturally occurring death), cerebral cortical cultures; type: cell-based; settings: untreated rat cerebral cortical cultures
Description: (a) Cerebral cortical cultures were prepared by a slight modification of the techniques described by Forsythe and Westbrook, (a. Physiol. Lond. 396:515 (1988)), in which cerebral cortex was used instead of hippocampus and newborn rats were utilized instead of E16 mice. After nine days growth in vitro, the cultures were given a complete change of medium and treated with serial dilutions of either peptide 1, 2 or 6 in order to determine whether these peptides were effective in protecting neurons from naturally occurring death. Cerebral cortical cells were counted as above, however, only 40 fields per plate were counted comprising an area of 20 mm^2.
(a) Cells were prepared as described in Example 6. After nine days growth in vitro, the cultures were given a complete change of medium and treated with serial dilutions of peptide 5 or of peptide 3 in the presence and in the absence of 10^-8 M of a VIP antagonist described in detail in U.S. Pat. No. 5,217,953. One treatment was given at the beginning of a five day test period. Cell counts were performed on 100 fields, with a total area of 50 mm^2. Neurons were counted without knowledge of treatment.

[13] = displacement of radiolabeled VIP, intact astrocytes, 4° C.
[14] = i.v., 7 μg/rat + vehicle (group 3)
[15] = i.v., 7,000 μg/rat + vehicle (group 4)

## Stearoyl-noricucine^17 -VIP [St-Nle^17 -VIP]
[1]
  learning and memory (latency of reaching the platform): showed recovery of the learning and memory abilities, essentially similar to that of control animals
[2]
  potency relative to native VIP in protecting electrically blocked cells from death: about 100 fold
[2]; 1 μM tetrodotoxin
  peak of active concentrations: broadening of the peak of active concentrations
[3]
  biologically active dose: 7 μg per rat
VIP receptor; VIP value from reference 19
  affinity to the high affinity receptor relative to VIP: about 100 fold
VIP receptor; [13]
  affinity relative to St-VIP, high concentration zone (low affinity zone): 10 fold
  affinity relative to St-VIP, low concentration (high affinity) zone: 10 fold
Sprague Dawley rats [4]; oral single dose
  body weight gain and food consumption: normal body weight gain
  side effects: No necrotic reactions, or any other side effects were observed
Sprague Dawley rats [4]; oral single dose, up to 7000 μg/rat
  mortality: No mortality occurred
Sprague Dawley rats [4]; oral, rat
  acute oral LD50: greater than 7000 μg/rat
[5]
  learning and memory (latency of reaching the platform): control animals (.quadrature.) show smaller improvement in the latency of reaching the platform
[6]; 15 mins. after intranasal administration
  distribution to brain after nasal administration: able to reach the brain
[6]; intranasal
  integrity of peptide in tissue (HPLC of radioactive supernatants): reaches its target organs in an active, intact form
[7]; 25 μM β-amyloid fragment 25-35
  most effective protective concentration (peak activity) against β-amyloid associated death: 10^-13 M
[7]; 25 μM β-amyloid fragment 25-35, 5 days
  protection of neurons from β-amyloid peptide fragment toxicity: able to protect neurons from the toxic effect of β-amyloid peptide fragment at all concentrations tested
[7]; FIG. 7 experiment
  concentrations protecting also against naturally occurring cell death: 10^-10 M and 10^-9 M
[8]
  learning and memory (latency of reaching the platform): showed a greater improvement in the latency of reaching the platform over time as compared to control untreated animals
[9]
  stability, powder: for a year
Sprague Dawley rats [10]; [14]
  animals with necrotic reaction at the site of injection (tail skin): 58%
  mortality: No mortality occurred in groups 1 and 3
Sprague Dawley rats [10]; [15]
  animals with necrotic reaction at the site of injection (tail skin): all the animals
  mortality: Seven rats (3 male and 4 female out of 12) died
  time of death after administration: ≤ 3 h
Sprague Dawley rats [10]; i.v., all groups
  other side effects in surviving rats: No other side effects were observed
Sprague Dawley rats [10]; i.v., two weeks study period
  body weight gain versus vehicle control: increased weight gain
Sprague Dawley rats [10]; i.v., with vehicle, combined males and females
  acute intravenous LD50, combined males and females: less than 7,000 μg
Sprague Dawley rats [10]; i.v., with vehicle, male rats
  acute intravenous LD50, males: 7,000 μg/male rat
Sprague Dawley rats [11]; topical daily
  body weight gain or food consumption: No significant differences were detected
  clinical pathology (hematology, clinical chemistry): No dose related or sex related biologically meaningful treatment effects were detected
  organ weight analysis: No treatment related differences were noted
Sprague Dawley rats [11]; topical daily for 13 weeks, 7, 700, 3500 μg
  adverse effects: No dose related adverse effects were detected; also recorded: did not cause any serious adverse effects at any of the dosages tested
Sprague Dawley rats [11]; topical daily, 7, 700, 3500 μg
  mortality: No mortality associated with drug application was noted

## fragment 25-35 of β-amyloid peptide: β-amyloid peptide fragment comprising amino acids in positions 25 to 35, toxic to neurons in culture (GSNKGAIIGLM; Amyloid-beta protein 42; UniProt P05067 696-706, looked up, fragment) [reference compound]
[7]; 25 μM fragment alone, 150 without fragment
  number of living neurons per tested area: 42 neurons

## St-His-Ser-Asp-Gly-Ee-Phe-Thr-Asp-Ser-Tyr-Ser-Arg-Tyr-Arg-amide (stearyl-HSDGIFTDSYSRYR-NH2; not fully specified (residue 5); printed as St-His-Ser-Asp-Gly-Ee-Phe-Thr-Asp-Ser-Tyr-Ser-Arg-Tyr-Arg-amide) [peptide 1]
[12]
  concentrations protecting cells from naturally occurring death: above 10^-8 M

## CCCC[C@H](NC(=O)[C@H](CCC(N)=O)NC(=O)[C@H](CCCCN)NC(=O)[C@H](CCCNC(=N)N)NC(=O)[C@H](CC(C)C)NC(=O)[C@H](CCCNC(=N)N)NC(=O)[C@@H](NC(=O)[C@H](Cc1ccc(O)cc1)NC(=O)[C@H](CC(N)=O)NC(=O)[C@H](CC(=O)O)NC(=O)[C@@H](NC(=O)[C@H](Cc1ccccc1)NC(=O)[C@@H](NC(=O)[C@H](C)NC(=O)[C@H](CC(=O)O)NC(=O)[C@H](CO)NC(=O)[C@@H](N)Cc1c[nH]cn1)C(C)C)[C@@H](C)O)[C@@H](C)O)C(=O)N[C@@H](C)C(=O)N[C@H](C(=O)N[C@@H](CCCCN)C(=O)N[C@@H](CCCCN)C(=O)N[C@@H](Cc1ccc(O)cc1)C(=O)N[C@@H](CC(C)C)C(=O)N[C@@H](CC(N)=O)C(=O)N[C@@H](CO)C(=O)N[C@H](C(=O)N[C@@H](CC(C)C)C(=O)N[C@@H](CC(N)=O)C(N)=O)[C@@H](C)CC)C(C)C [Nle^17 -VIP, Norleucine^17 -VIP]
[2]
  potency relative to native VIP in protecting electrically blocked cells from death: about 10 fold
